# From BindingDB's records for doi:10.1016/j.bmcl.2008.08.079 (Abbott Laboratories, 2008)
# Experiments:
# [1] = target: Serine/threonine-protein kinase pim-1 (Homo sapiens, UniProt P11309); assay: Pim Kinase Assay; details: pH 7.5; 22 °C
# Protocol: (§1) Assays were conducted in 384-well v-bottom polypropylene plates. Test compound was mixed with Pim and biotinylated peptide substrate, followed by immediate initiation with [gamma-33 P]ATP. Reactions were quenched and transferred to 384-well streptavidin-coated plates. After incubation, radioactivity was counted on a TopCount Scintillation Plate Reader (Packard).
# [2] = target: Serine/threonine-protein kinase pim-2 (Homo sapiens, UniProt Q9P1W9); assay: Pim Kinase Assay; details: pH 7.5; 22 °C
# Serine/threonine-protein kinase pim-2, sequence (Q9P1W9 whole entry): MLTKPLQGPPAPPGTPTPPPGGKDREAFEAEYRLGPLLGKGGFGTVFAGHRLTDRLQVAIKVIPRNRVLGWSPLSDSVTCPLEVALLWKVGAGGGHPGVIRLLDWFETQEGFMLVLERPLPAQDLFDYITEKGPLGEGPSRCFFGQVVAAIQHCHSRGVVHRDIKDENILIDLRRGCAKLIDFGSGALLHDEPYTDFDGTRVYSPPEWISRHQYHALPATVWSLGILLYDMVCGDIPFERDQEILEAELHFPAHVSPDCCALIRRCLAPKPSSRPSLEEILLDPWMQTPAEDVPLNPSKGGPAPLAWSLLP
# Protocol: as §1
# Serine/threonine-protein kinase pim-1, sequence (P11309 whole entry): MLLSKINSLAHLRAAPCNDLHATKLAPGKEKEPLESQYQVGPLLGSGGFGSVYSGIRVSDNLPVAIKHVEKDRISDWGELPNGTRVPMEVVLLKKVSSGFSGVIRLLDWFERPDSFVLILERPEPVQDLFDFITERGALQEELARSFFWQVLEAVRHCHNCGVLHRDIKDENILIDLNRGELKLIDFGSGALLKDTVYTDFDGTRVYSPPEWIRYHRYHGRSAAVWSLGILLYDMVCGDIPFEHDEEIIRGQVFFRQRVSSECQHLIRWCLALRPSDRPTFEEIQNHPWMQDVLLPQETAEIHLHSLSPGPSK
Structure (SMILES),Ki [1] [nM],Ki [2] [nM]
"CCCCn1c2noc(=O)c-2c(O)c2cc(F)c(Cl)cc21 [9-butyl-7-chloro-6-fluoro-1H,3H,4H,9H-quinolino[2,3-c][1,2]oxazole-3,4-dione]",15,165
"CC(C)n1c2noc(=O)c-2c(O)c2cc(F)c(Cl)cc21 [7-chloro-6-fluoro-9-(propan-2-yl)-1H,3H,4H,9H-quinolino[2,3-c][1,2]oxazole-3,4-dione]",12.3,62.8
"CCn1c2cc(Cl)c(F)cc2c(=O)c2c(=O)on(C)c21 [7-chloro-9-ethyl-6-fluoro-1-methyl-1H,3H,4H,9H-quinolino[2,3-c][1,2]oxazole-3,4-dione]",50.1,> 1420
"O=c1onc2n(Cc3ccccc3)c3cc(Cl)c(F)cc3c(O)c1-2 [9-benzyl-7-chloro-6-fluoro-1H,3H,4H,9H-quinolino[2,3-c][1,2]oxazole-3,4-dione]",36.5,558

# Next, values leading:
Ki [1] [nM],Ki [2] [nM],Structure (SMILES)
,43.5,"CCn1c2noc(=O)c-2c(O)c2cc(O)c(Cl)cc21 [7-chloro-9-ethyl-6-hydroxy-1H,3H,4H,9H-quinolino[2,3-c][1,2]oxazole-3,4-dione]"
2700,> 1420,"CCn1c2noc(=O)c-2c(O)c2cc(OC)c(Cl)cc21 [7-chloro-9-ethyl-6-methoxy-1H,3H,4H,9H-quinolino[2,3-c][1,2]oxazole-3,4-dione]"
